Data from PMC6829886, “Inhibition of Non-Small Cell Lung Cancer Cells by Oxy210, an Oxysterol-Derivative that Antagonizes TGFβ and Hedgehog Signaling” (Cells, 2019).
Where two headings read alike, the source gives them in different places.

Tests used:
TβRI = assay: Smad responsive luciferase reporter (CAGA12-Luc) in R1BL17 cells transfected with TGFβRI (WT or TD mutant); assay type: cell-based, mink; conditions: 20 h
H2030 cells = assay: Cell counting (proliferation) assay in H2030 cells; assay type: cell-based, human; conditions: for IC50 / IC90: Homo sapiens, NCI-H2030
Method: A549 and H2030 cells cultured in RPMI 1640 containing 5% FBS in 12 well-plates at 20% confluence were treated with Oxy210 for 6 days and then trypsinized, spun down and resuspended in fresh medium. For the Carboplatin (CP) and Oxy210 co-treatment experiments, A549 cells cultured in RPMI 1640 containing 2% FBS in 12 well-plates at 20% confluence were treated with CP at different concentrations in the presence or absence of Oxy210 for 6 days. For the TGFβ-induced drug resistance assay, A549 cells cultured in RPMI 1640 containing 2% FBS in 12 well-plates at 10% confluence were pre-treated with TGFβ1 alone or together with Oxy210 for 3 days, and then treated with 20 μM CP for 4 days. An aliquot of cell suspension was applied to a hemocytometer and the cells were then counted under a light microscope.
(§1) Statistical analyses were performed using the StatView 5 program (SAS Institute, Cary, NC, USA). All p values were calculated using ANOVA and Fisher’s projected least significant difference (PLSD) significance test. A value of p < 0.05 was considered significant. The IC 50 dose-response curves shown in Figure 4b and Figure 7a–c were modeled using a five-parameter logistic model. This model allows for asymmetric curves and automatically estimates the mean maximum and minimum response. Based on this model, IC 50 values were estimated corresponding to the dose halfway between min and max response. Models of dose versus response and dose versus log response were also evaluated (see Supplementary Materials). The R square statistic was computed as a measure of model fit.
Figure 7 Inhibition of NSCLC cell proliferation by Oxy210. A549 (a), (c) and H2030 (b) cells were treated with the test agents as indicated in RPMI 1640 containing 5% FBS for 5 days and then were trypsinized and counted as described in Methods and Materials section. Data from a representative experiment are reported as the mean of triplicate determinations ± SD (* p < 0.05 vs. control; ** p < 0.01 vs. control).

[1] = test system: Hh signaling (Gli1, Ptch1 mRNA) in NIH3T3-E1 cells; assay: Ligand-induced Hh target gene expression (Q-RT-PCR) in NIH3T3 cells treated with CAPAN-1 conditioned medium; assay type: cell-based
Method: Growth medium in confluent […] tissue culture plates of CAPAN-1 cells was replaced with 10 mL of fresh growth medium and cells incubated for a total of 7 days. Conditioned medium (CM) containing Shh and Ihh was collected and spun down to remove any detached cells and debris, aliquoted, and stored frozen at −80 °C (21).
(§2) Total RNA was extracted with the RNeasy Plus Mini Kit from Qiagen (Hilden, Germany) according to the manufacturer’s instructions. One microgram of RNA was reverse-transcribed using an iScript Reverse Transcription Supermix from Bio-Rad Laboratories (Hercules, CA, USA) to make single-stranded cDNA. The cDNAs were then mixed with Qi SYBR Green Supermix (Bio-Rad) for quantitative RT-PCR assay using a Bio-Rad I-cycler IQ quantitative thermocycler. All PCR samples were prepared in triplicate wells in a 96-well plate. After 40 cycles of PCR, melt curves were examined in order to ensure primer specificity. Fold changes in gene expression were calculated using the ΔΔCt method. Primers used for mouse were as follows: Oaz1 (5′-CCACTGCTTCGCCAGAGAG-3′) and (5′-CCCGGACCCAGGTTACTA-3′), Gli1 (5′- […]-3′ and 5′- GCT GATCCAGCCTAAGGTTCTC-3′), Ptch1 (5′-CCATCGGCGACAAGAACC-3′ and 5′-[…]-3′), Thbs1 (5′-[…]-3′ and 5′-CGGGGATCAGGTTGGCATT-3′), Cryab (5′-[…]-3′ and 5′-[…]-3′), Egr2 (5′-[…]-3′ and 5′-[…]-3′), CTGF (5′-GGGCCTCTTCTGCGATTTC-3′ and 5′-[…]-3′).
as §1
Figure 4 Inhibition of ligand-induced Hedgehog and TGFβ signaling in mouse fibroblast cells. NIH3T3 cells were pretreated for 2 h with Oxy210 or various inhibitors as indicated in DMEM containing 5% FBS. […] After 72 h, RNA was extracted and analyzed by Q-RT-PCR for the expression of Hh target genes Gli1 and Ptch1 and normalized to Oaz1 expression (a,b). […] After 48 h, RNA was extracted and analyzed by Q-RT-PCR for the expression of TGFβ target genes as indicated and normalized to Oaz1 expression. […] Luciferase activity was measured and normalized to the Renilla luciferase activity. […]

[2] = test system: Hh pathway target genes Gli1 and Hip in Sufu-/- MEFs; assay: Hh target gene expression in Sufu-/- mouse embryonic fibroblasts; assay type: cell-based; conditions: 72 h
Method: as §2
Figure 5 Oxy210 acts downstream of Smo. (a) Sufu-/- MEF cells were treated with DMEM containing 5% FBS in the presence or absence of Oxy210. After 72 h, RNA was extracted and analyzed by Q-RT-PCR for the expression of Hh target genes Gli1 and Hip, normalized to Oaz1 expression. […] Luciferase activity was measured and normalized to the Renilla luciferase activity. […]

## C[C@]12CC[C@H]3[C@@H](CC=C4C[C@@H](O)CC[C@@]43C)[C@@H]1CC[C@@H]2[C@](C)(O)CCc1cccnc1 [Oxy210, (3S,8S,9S,10R,13S,14S,17S)-17-((R)-2-hydroxy-4-(pyridin-3-yl)butan-2-yl)-10,13-dimethyl-2,3,4,7,8,9,10,11,12,13,14,15,16,17-tetradecahydro-1H-cyclopenta[a]phenanthren-3-ol]
TβRI
  activity of Smad responsive reporter stimulated by TGFβ-activated RI or ligand independent RI_TD: significantly inhibited
H2030 cells; H2030 cells/well, log 10 scale Y
  IC10 Estimate, dataset 3 - Fig 7b, log 10 scale Y: 1.89
H2030 cells; H2030 cells/well, original scale Y
  IC10 Estimate, dataset 3 - Fig 7b, original scale Y: 0.42 µM
H2030 cells; H2030 cells, 5% FBS, ± SE, read-out: IC50, anti-proliferative effect (cell counting)
  IC50: 1.66 ± 0.25 µM
H2030 cells; H2030 cells/well, log 10 scale Y, read-out: IC 50 Estimate, dataset 3 - Fig 7b, log 10 scale Y (converted)
  IC50: 2.52 µM
H2030 cells; H2030 cells/well, log 10 scale Y, read-out: IC90 Estimate, dataset 3 - Fig 7b, log 10 scale Y (converted)
  IC90: 3.37 µM
H2030 cells; H2030 cells/well, original scale Y, read-out: IC90 Estimate, dataset 3 - Fig 7b, original scale Y
  IC90: 4.09 µM
[1]; Gli1 mRNA, original scale Y, logistic curve model
  IC10 Estimate, dataset 1 - Fig 4b: 0.33 µM
[1]; Mus musculus, Gli1 mRNA, original scale Y, logistic curve model, read-out: IC90 Estimate, dataset 1 - Fig 4b
  IC90: 5.5 µM
[1]; NIH3T3-E1 cells, CAPAN-1 CM, 72 h
  mRNA expression of ligand-induced Hh target genes Gli1 and Ptch1: robustly inhibited
[1]; NIH3T3-E1 cells, CAPAN-1 CM, 72 h, Gli1 mRNA, five-parameter logistic model, ± SE, read-out: IC50 for inhibition of Gli1 expression
  IC50: 1.83 ± 0.21 µM
[2]
  high baseline expression of Hh pathway target genes Gli1 and Hip: significant inhibition
